The values that follow come from US5801183A, “Aza and aza (N-oxy) analogs of glycine/NMDA receptor antagonists” (priority 1995, dated 1998).

One data set relates to mice. Kind of data set: maximum electroshock-induced seizure (MES) assay in mice. The data set is classed as in vivo, male Swiss/Webster mice. To be noted: Mus musculus, iv, drug applied i.v. as an aqueous basic solution, read-out: ED50 as an anticonvulsant in a MES experiment in mice. The source says: The anticonvulsant activity of the glycine antagonists may be assessed in the maximum electroshock-induced seizure (MES) assay in mice. Electroshock was applied to male Swiss/Webster mice (20-30 g, Simonsen) through corneal electrodes (Swinyard, E. A., in Anticonvulsant Drugs, Mercier, J., ed., Pergamon Press, Oxford (1973), pp. 47-65). The seizure stimulus parameters were: 50 mA, 60 Hz, rectangular pulse, width 0.8 msec, duration 200 msec. Tonic hind limb extension observed after application of the electrical stimulus was recorded as occurrence of seizure. The drug was applied i.v. as an aqueous basic solution.

Data set [1] addresses T1, NMDA receptor glycine site (Rattus norvegicus, UniProt P35439).
T1 construct: from tissue; host or cells: rat brain membranes
Kind of data set: inhibition of [3H]DCKA binding to rat brain membranes. As for the experimental part: (§1) The affinity of the compounds for the NMDA receptor glycine site also was measured by inhibition of [^3 H]DCKA binding to rat brain membranes. See, Canton, T. et al., J. Pharm. Pharmacol. 44:812-816 (1992).

Data set [2] concerns glycine binding site of the NMDA receptor. To be noted: cited from earlier work.
The conditions of data set [3]: in vivo; cited from earlier work.
Another data set deals with T2, glycine/NMDA receptor (Rattus norvegicus, UniProt P35439).
T2 construct: rat brain membrane homogenates that are enriched in NMDA receptors; tissue Pel-Freez, Rogers, Ark; host or cells: frozen rat brain, membrane homogenate
Kind of data set: affinity at the glycine/NMDA receptor. The data set is classed as binding. As for the experimental part:
as §1
The glycine antagonist potency in vitro may be determined using a 1 μM glycine-stimulated [^3 H]-MK801 binding assay. This assay takes advantage of the fact that the binding of [^3 H]-MK801 to the PCP receptor inside the pore of the NMDA channel is dependent on the presence of both glutamate and glycine. […]
The assay is conducted using rat brain membrane homogenates that are enriched in NMDA receptors. […] The final pellet is suspended in three volumes of 50 mM HEPES, pH 7.4 and the protein concentration is determined with a standard dye-binding protein assay (Bio-Rad, Richmond, Calif.). […]
On the day of the assay, the previously prepared membranes are thawed and 5 mM Tris/HCl buffer, pH 7.4, is added to yield a final protein concentration of 0.156 mg/mL. […] To determine the effect of 1 μM glycine on the binding of [^3 H]-MK801, bound radioactivity in the presence of 10 μM glutamate alone (final concentration) is subtracted from the bound radioactivity in the presence of both 10 μM glutamate and 1 μM glycine (final concentration). […]

Another data set has as its target PCP receptor. The note with it: Wong et al., PNAS 83:7104-7108 (1986); cited from earlier work.
The next data set relates to rodents. To be noted: rodents / animal models; cited from earlier work.
In the next data set the test system is pigeons. The note with it: cited from earlier work.
Another data set can be described thus: log P (literature). It counts as physicochemical. To be noted: from benzene to the named substance.

The structures appear in SMILES notation.

In the case of `N#Cc1c(=O)[nH]c2cc(Cl)c(Cl)cc2[n+]1[O-]` [3-Cyano-6,7-dichloro-1,2-dihydroquinoxaline-2-one-4-oxide], in the data set with mice, the ED50 was found to be 5 mg/kg. Moreover, the half-maximal inhibitory concentration (IC50) in data set [1] stood at 135 nM.

For `O=c1[nH]c2ccccc2c(O)c1[N+](=O)[O-]` [4-hydroxy-3-nitro-1,2-dihydroquinolin-2-one], in [2], the “binding affinity for the glycine site (in words)” value (shortened to “binding affinity”) is listed as “high binding to the glycine receptor”.

For `O=C(O)c1cc(O)c2c(Cl)cc(Cl)cc2n1` [5,7-dichlorokynurenic acid], the “binding affinity” value in [2] is given as “relatively high receptor binding affinity in vitro”. Also, in data set [3], the blood/brain barrier penetration result is “cannot penetrate the blood/brain barrier”.

As for `Oc1nc2cc(Cl)cnc2c(O)c1-c1cccc(Oc2ccccc2)c1` [5-Aza-7-chloro-4-hydroxy-3-(m-phenoxyphenyl)quinolin-2-one], the 50% effective dose (ED50) with mice is 3 mg/kg. This molecule also yielded a Ki at glycine/NMDA receptor of 5 nM.

With `O=C(O)c1cc(O)c2ccc(Cl)cc2n1` [7-Cl-kynurenic acid], the “binding affinity” value in data set [2] is on record as “relatively high receptor binding affinity in vitro”. For the same molecule, in data set [3], the blood/brain barrier penetration result is “cannot penetrate the blood/brain barrier”.

Turning to `NC1CCN(O)C1=O` (stereo not drawn) [HA-966], the “binding affinity” value in data set [2] was “partial agonist with micromolar affinity for the glycine binding site”. Besides, in data set [3], the blood/brain barrier penetration entry is “sufficiently penetrates the blood/brain barrier”.

In the case of `C[C@]12N[C@H](Cc3ccccc31)c1ccccc12` [MK-801], at PCP receptor, the Kd was roughly 3 nM.

As to `c1ccc(C2(N3CCCCC3)CCCCC2)cc1` [PCP, phencyclidine], in the data set on rodents, the PCP-like behavioral effects result was “behavioral excitation (hyperlocomotion) in rodents”. Also, the katalepsy in pigeons entry with pigeons was “characteristic katalepsy in pigeons”.

On to `NCC(=O)O` [glycine], for which, in [2] (used in Cheng and Prusoff equation, read-out: known affinity for the glycine binding site of the NMDA receptor), the Kd is 100 nM.

Regarding `O=C(O)c1cc2ccccc2[nH]1` [indole-2-carboxylic acid], the “binding affinity” value in [2] is “relatively high receptor binding affinity in vitro”. Besides, in data set [3], the blood/brain barrier penetration result is “cannot penetrate the blood/brain barrier”.

For the molecule `[O-][n+]1ccccc1` [pyridine N-oxide], the “difference in log P from benzene” value in the data set “log P (literature)” was -3.84.

For orientation: ED50 means the midpoint of the dose-response relation. In general, IC50 refers to the concentration that gives 50% inhibition. Low readings indicate greater potency, high ones weaker potency. By Ki is commonly meant the dissociation constant of the complex between target and ligand, obtained from inhibition or displacement. High values mean lower affinity, low ones higher affinity.
